Structures can show the parent of a compound that is named as a salt. Where two headings read alike, the source gives them in different places.
Tests used:
Assay in all cases: AK assay 384-well format, Prestwick library screening
[1] = tested on: E. cloacae; assay type: cell-based, Enterobacter cloacae; settings: for fold induction at 50 µM: Enterobacter cloacae, 3 h
[2] = tested on: S. aureus strain USA300-0114; assay type: cell-based, Staphylococcus aureus; settings: for fold induction at 50 µM: Staphylococcus aureus, USA300, 3 h
[3] = tested on: E. faecium; assay type: cell-based, Enterococcus faecium; settings: for fold induction at 50 µM: Enterococcus faecium, 3 h
[4] = tested on: A. baumannii strain 98-37-09; assay type: cell-based, Acinetobacter baumannii; settings: for fold induction at 50 µM: Acinetobacter baumannii, 983709, 3 h
[5] = tested on: P. aeruginosa; assay type: cell-based, Pseudomonas aeruginosa; settings: for fold induction at 50 µM: Pseudomonas aeruginosa, 3 h
[6] = tested on: E. coli; assay type: cell-based, Escherichia coli; settings: for fold induction at 50 µM: Escherichia coli, 3 h
[7] = tested on: K. pneumoniae; assay type: cell-based, Klebsiella pneumoniae; settings: for fold induction at 50 µM: Klebsiella pneumoniae, 3 h
[8] = 50 μM final drug concentration, 384-well format, cutoff for positive-scoring molecules 3-fold increase, read-out: AK-based Prestwick Library Screening Results, E. cloacae (increase in extracellular AK activity)
[9] = 50 μM final drug concentration, 384-well format, cutoff for positive-scoring molecules 3-fold increase, read-out: AK-based Prestwick Library Screening Results, S. aureus (increase in extracellular AK activity)
[10] = 50 μM final drug concentration, 384-well format, cutoff for positive-scoring molecules 3-fold increase, read-out: AK-based Prestwick Library Screening Results, E. faecium (increase in extracellular AK activity)
[11] = 50 μM final drug concentration, 384-well format, cutoff for positive-scoring molecules 3-fold increase, read-out: AK-based Prestwick Library Screening Results, A. baumannii (increase in extracellular AK activity)
[12] = 50 μM final drug concentration, 384-well format, cutoff for positive-scoring molecules 3-fold increase, read-out: AK-based Prestwick Library Screening Results, P. aeruginosa (increase in extracellular AK activity)
[13] = 50 μM final drug concentration, 384-well format, cutoff for positive-scoring molecules 3-fold increase, read-out: AK-based Prestwick Library Screening Results, E. coli (increase in extracellular AK activity)
[14] = 50 μM final drug concentration, 384-well format, cutoff for positive-scoring molecules 3-fold increase, read-out: AK-based Prestwick Library Screening Results, K. pneumoniae (increase in extracellular AK activity)
[15] = 50 μM final drug concentration, planktonic, cutoff for positive 3-fold increase, read-out: AK-based Prestwick Library Screening Results, E. cloacae (fold increase in extracellular AK activity)
[16] = 50 μM final drug concentration, planktonic, cutoff for positive 3-fold increase, read-out: AK-based Prestwick Library Screening Results, S. aureus (fold increase in extracellular AK activity)
[17] = 50 μM final drug concentration, planktonic, cutoff for positive 3-fold increase, read-out: AK-based Prestwick Library Screening Results, E. faecium (fold increase in extracellular AK activity)
[18] = 50 μM final drug concentration, planktonic, cutoff for positive 3-fold increase, read-out: AK-based Prestwick Library Screening Results, A. baumannii (fold increase in extracellular AK activity)
[19] = 50 μM final drug concentration, planktonic, cutoff for positive 3-fold increase, read-out: AK-based Prestwick Library Screening Results, P. aeruginosa (fold increase in extracellular AK activity)
[20] = 50 μM final drug concentration, planktonic, cutoff for positive 3-fold increase, read-out: AK-based Prestwick Library Screening Results, E. coli (fold increase in extracellular AK activity)
[21] = 50 μM final drug concentration, planktonic, cutoff for positive 3-fold increase, read-out: AK-based Prestwick Library Screening Results, K. pneumoniae (fold increase in extracellular AK activity)
[22] = 50 μM final drug concentration, 384-well format, cutoff for positive-scoring molecules 3-fold increase

For `C=CCc1ccccc1OCC(O)CNC(C)C` (stereo not drawn) [Alprenolol hydrochloride], the fold induction at 50 µM [1, 8] was 0.4, the fold induction at 50 µM [2, 9] was 0.6 and the fold induction at 50 µM [3, 10] was 0.9. It also gave a fold induction at 50 µM [4, 11] of 0.7, a fold induction at 50 µM [5, 12] of 0.5 and a fold induction at 50 µM [6, 13] of 0.6. For the same compound, the fold induction at 50 µM [7, 14] was 0.5.
In the case of `CCCCC[C@H](O)/C=C/[C@H]1[C@H](O)CC(=O)[C@@H]1CCCCCCC(=O)O` [Alprostadil], the fold induction at 50 µM ([1]; planktonic E. cloacae, 50 μM final drug concentration, positive cutoff 3-fold increase, read-out: AK-based Prestwick library screening result, E. cloacae (fold increase in extracellular AK activity)) is reported as 1.4, the fold induction at 50 µM ([2]; planktonic S. aureus, 50 μM final drug concentration, positive cutoff 3-fold increase, read-out: AK-based Prestwick library screening result, S. aureus (fold increase in extracellular AK activity)) is reported as 1.1 and the fold induction at 50 µM ([3]; planktonic E. faecium, 50 μM final drug concentration, positive cutoff 3-fold increase, read-out: AK-based Prestwick library screening result, E. faecium (fold increase in extracellular AK activity)) is reported as 1. The fold induction at 50 µM ([4]; planktonic A. baumannii, 50 μM final drug concentration, positive cutoff 3-fold increase, read-out: AK-based Prestwick library screening result, A. baumannii (fold increase in extracellular AK activity)) was 1, the fold induction at 50 µM ([5]; planktonic P. aeruginosa, 50 μM final drug concentration, positive cutoff 3-fold increase, read-out: AK-based Prestwick library screening result, P. aeruginosa (fold increase in extracellular AK activity)) was 1.1 and the fold induction at 50 µM ([6]; planktonic E. coli, 50 μM final drug concentration, positive cutoff 3-fold increase, read-out: AK-based Prestwick library screening result, E. coli (fold increase in extracellular AK activity)) was 1.3. The fold induction at 50 µM ([7]; planktonic K. pneumoniae, 50 μM final drug concentration, positive cutoff 3-fold increase, read-out: AK-based Prestwick library screening result, K. pneumoniae (fold increase in extracellular AK activity)) was 1.1.
`C=CCSCC1Nc2cc(Cl)c(S(N)(=O)=O)cc2S(=O)(=O)N1` (stereo not drawn) [Althiazide] gave a fold induction at 50 µM [1, 15] of 0.3, a fold induction at 50 µM [2, 16] of 0.4 and a fold induction at 50 µM [3, 17] of 1. The fold induction at 50 µM [4, 18] was 0.4, the fold induction at 50 µM [5, 19] was 0.4 and the fold induction at 50 µM [6, 20] was 0.4. It also gave a fold induction at 50 µM [7, 21] of 0.4.
Work on `CN(C)c1nc(N(C)C)nc(N(C)C)n1` [Altretamine] yielded a fold induction at 50 µM ([1]; 50 μM final drug concentration, cutoff for positive-scoring molecules 3-fold increase, read-out: AK-based Prestwick Library Screening Results, E. cloacae (fold increase in extracellular AK activity)) of 1.4, a fold induction at 50 µM ([2]; 50 μM final drug concentration, cutoff for positive-scoring molecules 3-fold increase, read-out: AK-based Prestwick Library Screening Results, S. aureus (fold increase in extracellular AK activity)) of 1.1 and a fold induction at 50 µM ([3]; 50 μM final drug concentration, cutoff for positive-scoring molecules 3-fold increase, read-out: AK-based Prestwick Library Screening Results, E. faecium (fold increase in extracellular AK activity)) of 1. The fold induction at 50 µM ([4]; 50 μM final drug concentration, cutoff for positive-scoring molecules 3-fold increase, read-out: AK-based Prestwick Library Screening Results, A. baumannii (fold increase in extracellular AK activity)) was 1.3, the fold induction at 50 µM ([5]; 50 μM final drug concentration, cutoff for positive-scoring molecules 3-fold increase, read-out: AK-based Prestwick Library Screening Results, P. aeruginosa (fold increase in extracellular AK activity)) was 1.2 and the fold induction at 50 µM ([6]; 50 μM final drug concentration, cutoff for positive-scoring molecules 3-fold increase, read-out: AK-based Prestwick Library Screening Results, E. coli (fold increase in extracellular AK activity)) was 1.3. For the same compound, the fold induction at 50 µM ([7]; 50 μM final drug concentration, cutoff for positive-scoring molecules 3-fold increase, read-out: AK-based Prestwick Library Screening Results, K. pneumoniae (fold increase in extracellular AK activity)) was 1.
For `Nc1c(Br)cc(Br)cc1CN[C@H]1CC[C@H](O)CC1` [Ambroxol hydrochloride], the fold induction at 50 µM ([1]; planktonic E. cloacae, 50 μM final drug concentration, cutoff for positive-scoring molecules 3-fold increase, read-out: AK-based Prestwick Library Screening Results, E. cloacae (increase in extracellular AK activity)) was 1.5, the fold induction at 50 µM ([2]; planktonic S. aureus, 50 μM final drug concentration, cutoff for positive-scoring molecules 3-fold increase, read-out: AK-based Prestwick Library Screening Results, S. aureus (increase in extracellular AK activity)) was 1 and the fold induction at 50 µM ([3]; planktonic E. faecium, 50 μM final drug concentration, cutoff for positive-scoring molecules 3-fold increase, read-out: AK-based Prestwick Library Screening Results, E. faecium (increase in extracellular AK activity)) was 1. The fold induction at 50 µM ([4]; planktonic A. baumannii, 50 μM final drug concentration, cutoff for positive-scoring molecules 3-fold increase, read-out: AK-based Prestwick Library Screening Results, A. baumannii (increase in extracellular AK activity)) was 1.2, the fold induction at 50 µM ([5]; planktonic P. aeruginosa, 50 μM final drug concentration, cutoff for positive-scoring molecules 3-fold increase, read-out: AK-based Prestwick Library Screening Results, P. aeruginosa (increase in extracellular AK activity)) was 1.2 and the fold induction at 50 µM ([6]; planktonic E. coli, 50 μM final drug concentration, cutoff for positive-scoring molecules 3-fold increase, read-out: AK-based Prestwick Library Screening Results, E. coli (increase in extracellular AK activity)) was 1. For the same compound, the fold induction at 50 µM ([7]; planktonic K. pneumoniae, 50 μM final drug concentration, cutoff for positive-scoring molecules 3-fold increase, read-out: AK-based Prestwick Library Screening Results, K. pneumoniae (increase in extracellular AK activity)) was 1.
For `Cc1c(N(C)C)c(=O)n(-c2ccccc2)n1C` [Amidopyrine], the “AK-based Prestwick Library Screening Results, E. cloacae (increase in extracellular AK activity)” value [1, 22] was 0.4, the “AK-based Prestwick Library Screening Results, S. aureus (increase in extracellular AK activity)” value [2, 22] was 0.4 and the “AK-based Prestwick Library Screening Results, E. faecium (increase in extracellular AK activity)” value [3, 22] was 0.9. The “AK-based Prestwick Library Screening Results, A. baumannii (increase in extracellular AK activity)” value [4, 22] was 0.4, the “AK-based Prestwick Library Screening Results, P. aeruginosa (increase in extracellular AK activity)” value [5, 22] was 0.4 and the “AK-based Prestwick Library Screening Results, E. coli (increase in extracellular AK activity)” value [6, 22] was 0.5. For the same compound, the “AK-based Prestwick Library Screening Results, K. pneumoniae (increase in extracellular AK activity)” value [7, 22] was 0.5.
In the case of `NCC[C@H](O)C(=O)N[C@@H]1C[C@H](N)[C@@H](O[C@H]2O[C@H](CN)[C@@H](O)[C@H](O)[C@H]2O)[C@H](O)[C@H]1O[C@H]1O[C@H](CO)[C@@H](O)[C@H](N)[C@H]1O` [Amikacin hydrate], the fold induction at 50 µM [1, 15] is reported as 4.9, the fold induction at 50 µM [2, 16] is reported as 1.3 and the fold induction at 50 µM [3, 17] is reported as 1. The fold induction at 50 µM [4, 18] was 7.6, the fold induction at 50 µM [5, 19] was 14.2 and the fold induction at 50 µM [6, 20] was 22.1. It also gave a fold induction at 50 µM [7, 21] of 6.2.
For `N=C(N)NC(=O)c1nc(Cl)c(N)nc1N` [Amiloride hydrochloride dihydrate], the fold induction at 50 µM [1, 8] was 0.4, the fold induction at 50 µM [2, 9] was 0.4 and the fold induction at 50 µM [3, 10] was 0.8. The fold induction at 50 µM [4, 11] was 0.4, the fold induction at 50 µM [5, 12] was 0.3 and the fold induction at 50 µM [6, 13] was 0.5. For the same compound, the fold induction at 50 µM [7, 14] was 0.4.
In the case of `NCCCCCC(=O)O` [Aminocaproic acid], the fold induction at 50 µM ([1]; read-out: AK-based Prestwick Library Screening Results, E. cloacae (fold increase in extracellular AK activity)) is reported as 1.6, the fold induction at 50 µM ([2]; read-out: AK-based Prestwick Library Screening Results, S. aureus (fold increase in extracellular AK activity)) is reported as 1.2 and the fold induction at 50 µM ([3]; read-out: AK-based Prestwick Library Screening Results, E. faecium (fold increase in extracellular AK activity)) is reported as 1.1. For the same compound, the fold induction at 50 µM ([4]; read-out: AK-based Prestwick Library Screening Results, A. baumannii (fold increase in extracellular AK activity)) was 1.3, the fold induction at 50 µM ([5]; read-out: AK-based Prestwick Library Screening Results, P. aeruginosa (fold increase in extracellular AK activity)) was 1.1 and the fold induction at 50 µM ([6]; read-out: AK-based Prestwick Library Screening Results, E. coli (fold increase in extracellular AK activity)) was 1.2. The fold induction at 50 µM ([7]; read-out: AK-based Prestwick Library Screening Results, K. pneumoniae (fold increase in extracellular AK activity)) was 1.2.
